Results as given in patent publication US10722520B2, “Heterocyclic compounds and their use in preventing or treating bacterial infections” (MUTABILIS, priority 2016, dated 2020).
Structures can show the parent of a compound that is named as a salt. Where two headings read alike, the source gives them in different places.

Assays:
OXA-1 = OXA-1 (Escherichia coli, UniProt P13661)
KPC-2 = KPC-2 (Klebsiella pneumoniae, UniProt Q9F663)
OXA-15 = OXA-15 (Pseudomonas aeruginosa, UniProt Q51574); assay: biochemical
OXA-11 = OXA-11 (Pseudomonas aeruginosa, UniProt Q06778)
CTX-M-15 = CTX-M-15 (Escherichia coli, UniProt Q9EXV5)
OXA-48 = OXA-48 (Klebsiella pneumoniae, UniProt Q6XEC0)
SHV-1 = SHV-1 (Klebsiella pneumoniae, UniProt P0AD64)
AmpC (PAE) = AmpC (PAE) (Pseudomonas aeruginosa, UniProt P24735); assay: biochemical
CMY-37 = CMY-37 (Citrobacter freundii, UniProt P05193); conditions: read-out: IC50 β-lactamase CMY-37
TEM-1 = TEM-1 (Escherichia coli, UniProt P62593)
AmpC (P99) = AmpC (P99) (Enterobacter cloacae, UniProt P05364); assay: biochemical
E. cloacae P99 = assay: MIC of compound alone, broth microdilution; format: cell-based; conditions: Enterobacter cloacae; strain P99; compound alone; read-out: MIC compounds of the invention alone
Method: (§1) Log phase bacterial suspensions were adjusted to a final density of 5×10^5 cfu/mL in cation-adjusted Mueller-Hinton broth (Becton-Dickinson) and added to each well (98 μL). Microplates were incubated for 16-20 h at 35° C. in ambient air. The MIC of the compounds was defined as the lowest concentration of said compounds that prevented bacterial growth as read by visual inspection.

K. pneumoniae 6299 = assay: MIC of compound alone, broth microdilution; format: cell-based; conditions: Klebsiella pneumoniae; strain 6299; compound alone; read-out: MIC compounds of the invention alone
Method: as §1

K. pneumoniae BAA-1898 = assay: MIC of compound alone, broth microdilution; format: cell-based; conditions: Klebsiella pneumoniae, BAA1898; strain BAA-1898; compound alone; read-out: MIC compounds of the invention alone
Method: as §1

P. aeruginosa CIP107051 = assay: MIC of compound alone, broth microdilution; format: cell-based; conditions: Pseudomonas aeruginosa; strain CIP107051; compound alone; read-out: MIC compounds of the invention alone
Method: as §1

E. coli 190317 = assay: MIC of compound alone, broth microdilution; format: cell-based; conditions: Escherichia coli; strain 190317; compound alone; read-out: MIC compounds of the invention alone
Method: as §1

[1] = class (C), nitrocefin 200 μM, 30-min pre-incubation, enzyme 0.2 nM

| SMILES | IC50 (OXA-1) [µM] | IC50 (KPC-2) [µM] | IC50 (OXA-15) [µM] | IC50 (OXA-11) [µM] | IC50 (CTX-M-15) [µM] | IC50 (OXA-48) [µM] | IC50 (SHV-1) [µM] | IC50 (AmpC (PAE)) [µM] | IC50 (CMY-37) [µM] | IC50 (TEM-1) [µM] | IC50 (AmpC (P99)) [µM] | MIC (E. cloacae P99) [µg/mL] | MIC (K. pneumoniae 6299) [µg/mL] | MIC (K. pneumoniae BAA-1898) [µg/mL] | MIC (P. aeruginosa CIP107051) [µg/mL] | MIC (E. coli 190317) [µg/mL] | IC50 (CMY-37; [1]) [µM] |
| --- | --- | --- | --- | --- | --- | --- | --- | --- | --- | --- | --- | --- | --- | --- | --- | --- | --- |
| O=C(NOCCO)c1ccn(C2=CC3CN(C2)C(=O)N3OS(=O)(=O)[O-])n1.[Na+] (centres unmarked) [Example 47, sodium [3-[3-(2-hydroxyethoxycarbamoyl)pyrazol-1-yl]-7-oxo-1,6-diazabicyclo[3.2.1]oct-3-en-6-yl]sulfate] | 0.2 | 0.012 | 0.16 | 0.1 | 0.0011 | 0.0067 | 0.0091 | 0.48 | 0.032 | 0.0015 | 0.032 | 32 | 32 | 32 | > 32 | 8 |  |
| O=C(Nc1ccccn1)c1ccn(C2=CC3CN(C2)C(=O)N3OS(=O)(=O)[O-])n1.[Na+] (centres unmarked) [Example 80, sodium [7-oxo-3-[3-(2-pyridylcarbamoyl)pyrazol-1-yl]-1,6-diazabicyclo[3.2.1]oct-3-en-6-yl]sulfate] | 0.03 | 0.0026 | 0.011 | 0.0055 | 0.00029 | 0.00086 | 0.0014 | 0.15 | 0.012 | 0.00027 | 0.0079 | > 32 | > 32 | > 32 | > 32 | > 32 |  |
| O=C1N2CC(n3cc(CO)cn3)=CC(C2)N1OS(=O)(=O)[O-].[Na+] (centres unmarked) [Example 71, sodium [3-[4-(hydroxymethyl)pyrazol-1-yl]-7-oxo-1,6-diazabicyclo[3.2.1]oct-3-en-6-yl]sulfate] | 0.45 | 0.042 | 0.055 | 0.26 | 0.00078 | 0.012 | 0.0096 | 0.047 | 0.01 | 0.0014 | 0.019 | 16 | 32 | 16 | > 32 | 4 |  |
| NS(=O)(=O)c1cnn(C2=CC3CN(C2)C(=O)N3OS(=O)(=O)[O-])c1.[Na+] (centres unmarked) [Example 16, sodium [7-oxo-3-(4-sulfamoylpyrazol-1-yl)-1,6-diazabicyclo[3.2.1]oct-3-en-6-yl]sulfate] | 0.1 | 0.0046 | 0.042 | 0.65 | 0.0014 | 0.012 | 0.0034 | 0.18 | 0.021 | 0.00056 | 0.013 | 32 | > 32 | 32 | > 32 | 8 |  |
| NCCNC(=O)c1cnn(C2=CC3CN(C2)C(=O)N3OS(=O)(=O)O)c1 (centres unmarked) [Example 38, [3-[4-(2-aminoethylcarbamoyl)pyrazol-1-yl]-7-oxo-1,6-diazabicyclo[3.2.1]oct-3-en-6-yl]hydrogen sulfate] | 0.18 | 0.0075 | 0.017 | 0.05 | 0.0007 | 0.0032 | 0.0025 | 0.21 |  | 0.00043 | 0.034 | 16 | > 32 | > 32 | 32 | 4 | 0.038 |
| NCCONC(=O)c1cn(C2=CC3CN(C2)C(=O)N3OS(=O)(=O)O)nn1 (centres unmarked) [Example 63, [3-[4-(2-aminoethoxycarbamoyl)triazol-1-yl]-7-oxo-1,6-diazabicyclo[3.2.1]oct-3-en-6-yl]hydrogen sulfate] | 0.052 | 0.0047 | 0.041 | 0.11 | 0.00053 | 0.00097 | 0.0069 | 0.53 |  | 0.00086 | 0.019 | 16 | > 32 | 32 | > 32 | 8 | 0.055 |
| O=C1N2CC(n3cc(CO)nn3)=CC(C2)N1OS(=O)(=O)O (centres unmarked) [Example 64, sodium [3-[4-(hydroxymethyl)triazol-1-yl]-7-oxo-1,6-diazabicyclo[3.2.1]oct-3-en-6-yl]sulfate] | 0.086 | 0.007 | 0.0087 | 0.096 | 0.001 | 0.0007 | 0.0029 |  |  | 0.00052 |  | 4 | 32 | 8 | > 32 | 2 |  |
| O=C(Nc1cc[nH]n1)c1ccn(C2=CC3CN(C2)C(=O)N3OS(=O)(=O)[O-])n1.[Na+] (centres unmarked) [Example 85, sodium [7-oxo-3-[3-(pyrazol-3-ylcarbamoyl)pyrazol-1-yl]-1,6-diazabicyclo[3.2.1]oct-3-en-6-yl]sulfate] | 0.022 | 0.0034 | 0.016 | 0.0075 | 0.00059 | 0.0017 | 0.0016 | 0.13 |  | 0.00035 | 0.011 | > 32 | > 32 | > 32 | > 32 | 32 |  |
| CNCc1cn(C2=CC3CN(C2)C(=O)N3OS(=O)(=O)O)nn1 (centres unmarked) [Example 60, [3-[4-(methylaminomethyl)triazol-1-yl]-7-oxo-1,6-diazabicyclo[3.2.1]oct-3-en-6-yl]hydrogen sulfate] | 0.13 | 0.014 | 0.0081 | 0.13 | 0.00073 | 0.0012 | 0.002 | 0.33 |  | 0.00035 | 0.027 | 1 | > 32 | > 32 | 32 | 0.5 | 0.068 |
| O=C(c1ccn(C2=CC3CN(C2)C(=O)N3OS(=O)(=O)[O-])n1)N1CCOCC1.[Na+] (centres unmarked) [Example 31, sodium (7-oxo-3-[3-(morpholine-4-carbonyl)pyrazol-1-yl]-1,6-diazabicyclo[3.2.1]oct-3-en-6-yl) sulfate] | 0.064 | 0.011 | 0.088 | 0.033 | 0.00062 | 0.003 | 0.0044 | 0.21 |  | 0.0013 | 0.015 | > 32 | > 32 | > 32 | > 32 | > 32 |  |
| O=C1N2CC(n3ccc(CO)n3)=CC(C2)N1OS(=O)(=O)O (centres unmarked) [Example 12, triethylammonium [3-[3-(hydroxymethyl)pyrazol-1-yl]-7-oxo-1,6-diazabicyclo[3.2.1]oct-3-en-6-yl]sulfate] | 0.2 | 0.026 | 0.19 | 0.07 | 0.00053 | 0.012 | 0.0021 | 0.052 |  | 0.00041 | 0.015 | 4 | 16 | 8 | > 32 | 1 |  |
| O=C1N2CC(n3ccc([C@H](O)CO)n3)=CC(C2)N1OS(=O)(=O)[O-].[Na+] (stereo partly drawn) [Example 76, sodium [3-[3-[(1S)-1,2-dihydroxyethyl]pyrazol-1-yl]-7-oxo-1,6-diazabicyclo[3.2.1]oct-3-en-6-yl]sulfate] | 0.86 | 0.073 | 0.61 | 0.26 | 0.0021 | 0.05 | 0.0073 | 0.21 |  | 0.0018 | 0.029 | 32 | > 32 | > 32 | > 32 | 8 |  |
